# Values quoted from earlier work in patent US4461765A (Shionogi & Co., Ltd., priority 1979, dated 1984).
# Conditions: co-trimoxazol SMX:TMP 5:1; oral or intravenous administration
smiles,measurement,value
"COc1cc(Cc2cnc(N)nc2N)cc(OC)c1OC [TMP, trimethoprim]",minimum inhibition concentration in the blood level,0.6 µg/mL
